Experimental data as given in ChEMBL document CHEMBL5634112, “Synthesis and biological evaluation of fluoroquinolones containing a pyridoxine derivatives moiety” (Eur J Med Chem, 2023).
≈ marks a conversion by molar mass, not a printed value.

What was measured:
Bacillus subtilis = experiment: Antibacterial activity against Bacillus subtilis 168 assessed as reduction in microbial growth incubated for 24 hrs by broth microdilution method; assay type: functional
[1] = Cytotoxicity against human CHL assessed as reduction in cell viability incubated for 72 hrs by MTT assay; assay type: toxicity, cell-based; conditions: CHL cells
Staphylococcus aureus [2] = experiment: In vivo antibacterial activity against Staphylococcus aureus N-10 infected in Po dosed SHK mouse model of sepsis assessed as survival measured after 14 days; assay type: functional; conditions: N-10, 336 h, time 14 day
Pseudomonas aeruginosa [3] = experiment: Antibacterial activity against Pseudomonas aeruginosa ATCC 27853 assessed as reduction in microbial growth incubated for 24 hrs by broth microdilution method; assay type: functional
[4] = Cytotoxicity against human MSC assessed as reduction in cell viability incubated for 72 hrs by MTT assay; assay type: toxicity, cell-based; conditions: MSC cells
[5] = Cytotoxicity against human HSF assessed as reduction in cell viability incubated for 72 hrs by MTT assay; assay type: toxicity, cell-based; conditions: HSF cells
Salmonella typhimurium = experiment: Antibacterial activity against Salmonella typhimurium TA100 assessed as reduction in microbial growth incubated for 24 hrs by broth microdilution method; assay type: functional, Salmonella enterica subsp. enterica serovar Typhimurium; conditions: Salmonella enterica
Staphylococcus aureus [6] = experiment: Antibacterial activity against methicillin sensitive Staphylococcus aureus ATCC 29213 assessed as reduction in microbial growth incubated for 24 hrs by broth microdilution method; assay type: functional
Topoisomerase IV = Topoisomerase IV (Staphylococcus aureus, UniProt P0C1S7+P0C1U9); experiment: Inhibition of Staphylococcus aureus topoisomerase-IV assessed as reduction in decatenation using kinetoplast DNA as substrate incubated for 30 mins by ethidium bromide staining based agarose gel electrophoresis method; assay type: protein-complex assay
Escherichia coli [7] = experiment: Antibacterial activity against Escherichia coli ATCC 25922 assessed as reduction in microbial growth incubated for 24 hrs by broth microdilution method; assay type: functional
Micrococcus luteus = experiment: Antibacterial activity against clinical isolate Micrococcus luteus assessed as reduction in microbial growth incubated for 24 hrs by broth microdilution method; assay type: functional
Staphylococcus aureus [8] = experiment: Antibacterial activity against clinical isolate Staphylococcus aureus 4721 assessed as reduction in microbial growth incubated for 24 hrs by broth microdilution method; assay type: functional
Staphylococcus aureus [9] = experiment: Antibacterial activity against clinical isolate Staphylococcus aureus 1812 assessed as reduction in microbial growth incubated for 24 hrs by broth microdilution method; assay type: functional
Klebsiella aerogenes = experiment: Antibacterial activity against clinical isolate Enterobacter aerogenes NKC 8 assessed as reduction in microbial growth incubated for 24 hrs by broth microdilution method; assay type: functional
Staphylococcus aureus [10] = experiment: Antibacterial activity against clinical isolate methicillin resistant Staphylococcus aureus 4771 assessed as reduction in microbial growth incubated for 24 hrs by broth microdilution method; assay type: functional
Cedecea davisae = experiment: Antibacterial activity against clinical isolate Cedecea davisae 1813 assessed as reduction in microbial growth incubated for 24 hrs by broth microdilution method; assay type: functional
[11] = system: Staphylococcus haemolyticus; experiment: Antibacterial activity against clinical isolate Staphylococcus haemolyticus NKC 31/2 assessed as reduction in microbial growth incubated for 24 hrs by broth microdilution method; assay type: functional
[12] = system: Staphylococcus auricularis; experiment: Antibacterial activity against clinical isolate Staphylococcus auricularis NKC 7 assessed as reduction in microbial growth incubated for 24 hrs by broth microdilution method; assay type: functional
Enterococcus faecalis = experiment: Antibacterial activity against clinical isolate Enterococcus faecalis 1465 assessed as reduction in microbial growth incubated for 24 hrs by broth microdilution method; assay type: functional
[13] = system: Staphylococcus epidermidis; experiment: Antibacterial activity against clinical isolate Staphylococcus epidermidis NKC 37/1 assessed as reduction in microbial growth incubated for 24 hrs by broth microdilution method; assay type: functional
Klebsiella pneumoniae = experiment: Antibacterial activity against clinical isolate Klebsiella pneumoniae 1678 assessed as reduction in microbial growth incubated for 24 hrs by broth microdilution method; assay type: functional
Escherichia coli [14] = experiment: Antibacterial activity against clinical isolate Escherichia coli NKC 1 assessed as reduction in microbial growth incubated for 24 hrs by broth microdilution method; assay type: functional
[15] = system: Staphylococcus epidermidis; experiment: Antibacterial activity against clinical isolate Staphylococcus epidermidis assessed as reduction in microbial growth incubated for 24 hrs by broth microdilution method; assay type: functional
[16] = system: Staphylococcus haemolyticus; experiment: Antibacterial activity against clinical isolate Staphylococcus haemolyticus 1464 assessed as reduction in microbial growth incubated for 24 hrs by broth microdilution method; assay type: functional
Pseudomonas aeruginosa [17] = experiment: Antibacterial activity against clinical isolate Pseudomonas aeruginosa NKC 17 assessed as reduction in microbial growth incubated for 24 hrs by broth microdilution method; assay type: functional

Work on O=C(O)c1cn(C2CC2)c2cc(N3CCNCC3)c(F)cc2c1=O [CIPROFLOXACIN] yielded an MIC (Bacillus subtilis) of 0.5 µg/mL, a CC50 at 72 h [1] of 29.3 µg/mL (≈ 88.5 µM) and an ED50 (Staphylococcus aureus [2]) of 11.2 mg/kg. The MIC (Pseudomonas aeruginosa [3]) was 1 µg/mL, the CC50 at 72 h [4] was 41.6 µg/mL (≈ 126 µM) and the CC50 at 72 h [5] was 52.8 µg/mL (≈ 159 µM). For the same molecule, the MIC (Salmonella typhimurium) was 1 µg/mL.

COc1c(N2C[C@@H]3CCCN[C@@H]3C2)c(F)cc2c(=O)c(C(=O)O)cn(C3CC3)c12 [MOXIFLOXACIN] gave an MIC (Bacillus subtilis) of 2 µg/mL, a CC50 at 72 h [1] of 35 µg/mL (≈ 87.2 µM) and an MIC (Staphylococcus aureus [6]) of 0.5 µg/mL. It also gave an MIC (Pseudomonas aeruginosa [3]) of 4 µg/mL, an IC50 (Topoisomerase IV) of 29.9 µM and an MIC (Escherichia coli [7]) of 1 µg/mL. It also gave a CC50 at 72 h [4] of 39.4 µg/mL (≈ 98.2 µM), a CC50 at 72 h [5] of 36.5 µg/mL (≈ 90.8 µM) and an MIC (Salmonella typhimurium) of 1 µg/mL.

CCn1cc(C(=O)O)c(=O)c2cc(F)c(N3CCN(Cc4cnc(C)c(O)c4CO)C(C)C3)c(F)c21.Cl (centres undefined) showed an MIC (Bacillus subtilis) of 0.5 µg/mL, an MIC (Micrococcus luteus) of 0.5 µg/mL and an MIC (Staphylococcus aureus [8]) of 1 µg/mL. It also gave a CC50 at 72 h [1] of 7.85 µg/mL, an MIC (Staphylococcus aureus [9]) of 1 µg/mL and an MIC (Klebsiella aerogenes) of 8 µg/mL. The MIC (Staphylococcus aureus [10]) was 1 µg/mL, the MIC (Staphylococcus aureus [6]) was 2 µg/mL and the MIC (Pseudomonas aeruginosa [3]) was 4 µg/mL. The MIC (Cedecea davisae) was 2 µg/mL, the MIC [11] was 16 µg/mL and the MIC [12] was 0.13 µg/mL. For the same molecule, the MIC (Enterococcus faecalis) was 8 µg/mL, the MIC [13] was 1 µg/mL and the MIC (Klebsiella pneumoniae) was > 64 µg/mL. For the same molecule, the MIC (Escherichia coli [7]) was 8 µg/mL, the MIC (Escherichia coli [14]) was 2 µg/mL and the MIC [15] was 1 µg/mL. The MIC [16] was 1 µg/mL, the CC50 at 72 h [4] was 13.1 µg/mL and the MIC (Pseudomonas aeruginosa [17]) was > 64 µg/mL. It also gave a CC50 at 72 h [5] of 22.3 µg/mL and an MIC (Salmonella typhimurium) of 2 µg/mL.
